Laboratory results reported in publication PMC8491018, “Improved virus-induced gene silencing allows discovery of a serpentine synthase gene in Catharanthus roseus” (Plant Physiology, 2021).

What was measured:
[1] = target: T1, serpentine synthase (SS, CrSS) (Catharanthus roseus, UniProt A0A8F5R546); assay: LC-MS of product alstonine, yeast cultures expressing CrSS and yeast microsomes; type: biochemical; conditions: 30 uM substrate; microsomes: 150 uM NADPH, HEPES-NaOH pH 7.5, 30 C, 60 min; AaCPR co-expressed
T1 construct: predicted TM helix aa 7-24 FWSLPAIALLQVFLFFLF; 6HIS version (in planta) about 59 kDa
T1 sequence (A0A8F5R546 1-511): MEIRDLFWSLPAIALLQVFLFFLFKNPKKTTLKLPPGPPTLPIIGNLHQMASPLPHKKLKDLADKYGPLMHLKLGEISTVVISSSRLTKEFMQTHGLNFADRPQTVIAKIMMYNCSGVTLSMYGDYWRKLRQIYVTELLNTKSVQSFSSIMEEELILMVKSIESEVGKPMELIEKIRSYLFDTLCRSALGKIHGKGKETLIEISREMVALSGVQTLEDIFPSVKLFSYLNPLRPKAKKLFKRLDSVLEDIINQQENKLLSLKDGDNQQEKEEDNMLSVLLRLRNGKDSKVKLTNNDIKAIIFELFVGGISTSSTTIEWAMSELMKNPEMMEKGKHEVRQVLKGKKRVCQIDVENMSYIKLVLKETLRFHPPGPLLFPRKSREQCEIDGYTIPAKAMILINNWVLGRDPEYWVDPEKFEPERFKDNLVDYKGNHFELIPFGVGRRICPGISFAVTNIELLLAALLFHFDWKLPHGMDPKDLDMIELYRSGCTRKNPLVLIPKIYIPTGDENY

[2] = target: T1, serpentine synthase (SS, CrSS); assay: LC-MS of product serpentine, yeast cultures expressing CrSS and yeast microsomes; type: biochemical; conditions: 30 uM substrate; microsomes: 150 uM NADPH, HEPES-NaOH pH 7.5, 30 C, 60 min; AaCPR co-expressed

| Compound | LC-MS of product alstonine, yeast cultures expressing CrSS and yeast microsomes [1] | LC-MS of product serpentine, yeast cultures expressing CrSS and yeast microsomes [2] |
| --- | --- | --- |
| COC(=O)C1=CO[C@@H](C)[C@@H]2CN3CCc4c([nH]c5ccccc45)[C@@H]3C[C@H]12 [THA] | this cytochrome P450 could also produce alstonine from THA |  |
| COC(=O)C1=CO[C@@H](C)[C@H]2CN3CCc4c([nH]c5ccccc45)[C@@H]3C[C@H]12 [ajmalicine] |  | CrSS produced serpentine from ajmalicine when incubated in the media of yeast cultures expressing CrSS |
